Drawing on ChEMBL document CHEMBL5325435, “Optimization of an α-aminonaphthylmethylphosphonic acid inhibitor of purple acid phosphatase using rational structure-based design approaches” (Eur J Med Chem, 2023), this text covers Ki for 15 molecules.

The nature of this experiment: Competitive inhibition of pig uterine fluid fully reduced PAP using p-NPP as substrate measured at 4.9 by UV-Vis spectrophotometric analysis. It is filed as tissue-based, Sus scrofa.
On to `CCCCCCCCCCCCCCCCCC(=O)NC(c1ccc(OCC)cc1)P(=O)(O)O` (racemic), for which affinity was put at a Ki of 6000 nM. Then `CCCCCCCCCCCCCCCCOCC(=O)NC(c1ccc(OC)cc1)P(=O)(O)O` (racemic), with 270 nM; and `CCCCCCCCCCCCCC(=O)NC(c1ccc(OCC)cc1)P(=O)(O)O` (racemic), with 3000 nM. Then `CCCCCCCCCC(=O)NC(c1ccccc1)P(=O)(O)O` (racemic), with 19000 nM. With `CCCCCCCCCCCCCCCC(=O)NC(c1ccc(OCC)cc1)P(=O)(O)O` (racemic), affinity was put at a Ki of 610 nM. For `CCCCCCCCCCCCCC(=O)NC(c1ccc(OC)cc1)P(=O)(O)O` (racemic), the inhibition constant (Ki) (commonly the dissociation constant of the complex between target and ligand, obtained from inhibition or displacement) is 400 nM. For `CCCCCCCCOCC(=O)NC(c1ccccc1)P(=O)(O)O` (racemic), the affinity, expressed as Ki, was 56000 nM. The figure for `CCCCCCCCCCCCCCCC(=O)NC(c1ccccc1)P(=O)(O)O` (racemic) is 320 nM. The molecule `CCCCCCCCCCCC(=O)NC(c1ccccc1)P(=O)(O)O` (racemic) gave an inhibition constant (Ki) of 31000 nM. The figure for `CCCCCCCCCCCC(=O)NC(c1ccc(OC)cc1)P(=O)(O)O` (racemic) is 3000 nM; for `CCCCCCCCCCCCCCCCCC(=O)NC(c1ccccc1)P(=O)(O)O` (racemic) it is 168 nM; for `CCCCCCCCCCCCCC(=O)NC(c1ccccc1)P(=O)(O)O` (racemic) it is 320 nM.

`CCCCCCCCCCCCCCCCOCC(=O)NC(c1ccccc1)P(=O)(O)O` (racemic) returned a Ki of 550 nM. On to `CCCCCCCCCCCCCCCC(=O)NC(c1ccc(OC)cc1)P(=O)(O)O` (racemic), for which affinity was put at a Ki of 340 nM.

The molecule `CCCCCCCCCCCCCCCCCC(=O)NC(c1ccc(OC)cc1)P(=O)(O)O` (racemic) displayed a Ki of 186 nM.
